In article PMC5207512, “Inhibition of Helicobacter pylori and Its Associated Urease by Palmatine: Investigation on the Potential Mechanism” (PLoS ONE, 2017):
“And” between values parts separate entries of the source, which are not always exact repeats. Equal values may be shown once. Read-outs that look alike come from different tables or passages of the source.

What was measured:
H. pylori ATCC 43504 = assay: MIC by agar dilution method; type: cell-based; settings: Helicobacter pylori
Protocol: (§1) A total of four H. pylori strains were studied, including three reference strains ATCC 43504, NCTC 26695 and SS1 gifted from Professor Richard Ferrero, Monash University, Australia, and one clinical isolate ICDC 111001 obtained from Professor Zhang Jianzhong, Chinese Center of Disease Control and Prevention. […] The MICs of Pal against the four H. pylori strains were evaluated by using agar dilution method. […] H. pylori strains were harvested and resuspended in PBS (1.0–2.0 McFarland were defined based on the strain properties). […] After 72 h, the MIC values were determined as the lowest concentration at which there was no strain growth judged by visual examination. Metronidazole was used as the positive control. The experiments were evaluated under two different pH (7.4 and 5.3) conditions and repeated twice.

[1] = tested on: H. pylori ICDC 111001 (clinical isolate); assay: MIC by agar dilution method; type: cell-based; settings: Helicobacter pylori
Protocol: as §1

H. pylori NCTC 26695 = assay: MIC by agar dilution method; type: cell-based; settings: Helicobacter pylori
Protocol: as §1

H. pylori SS1 = assay: MIC by agar dilution method; type: cell-based; settings: Helicobacter pylori
Protocol: as §1

[2] = tested on: four H. pylori strains (ATCC 43504, NCTC 26695, SS1 and ICDC 111001); assay: MIC by agar dilution method, range over the four strains; type: cell-based; settings: Helicobacter pylori, read-out: MIC values against the four H. pylori strains
Protocol: as §1

H. pylori urease (HPU) [3] = molecular target: T1, H. pylori urease (HPU) (Helicobacter pylori, UniProt P69996); assay: Inhibition kinetic study (Lineweaver-Burk plots); type: biochemical; settings: for Lineweaver-Burk plot raw value (reciprocal velocity): Fig 3A HPU
T1 construct: HPU was prepared as previously described; made in house
Protocol: Michaelis constant KM and the maximum velocity vmax values were evaluated by means of Lineweaver—Burk plots, using the initial velocities at different urea concentrations ([…]), in the absence or presence of 1.00, 0.50, and 0.25 mM Pal. The concentrations of HPU and JBU were both 0.25 mg/mL in the assays. The values were obtained by applying nonlinear regression to the Michaelis-Menten equation. All experiments were performed in triplicate.

H. pylori urease (HPU) [4] = molecular target: T1, H. pylori urease (HPU); assay: biochemical; settings: read-out: Residual urease activity (percent of control), Fig 4A HPU, Pal 0.5 mM, thiols 1.25 mM, replicates
Protocol: (§2) For the protection with thiols-containing compounds, the mixture consisting of 0.25 mg/mL urease (HPU or JBU), 0.5 mM Pal (for both HPU and JBU) and 1.25 mM thiols (DTT, GSH and L-cys) was incubated for 5, 10, 20, and 40 min at 37°C, respectively. The control sample instead of the protectors contained a proper volume of respective buffer.

jack bean urease (JBU) [5] = molecular target: T2, jack bean urease (JBU) (Canavalia ensiformis, UniProt P07374); assay: biochemical; settings: read-out: Residual urease activity (percent of control), Fig 4B JBU, Pal 0.5 mM, thiols 1.25 mM, replicates
T2 construct: Urease from jack bean (Canavalia ensiformis, JBU); purchased Sigma-Aldrich (St Louis, MO, USA) type III (catalogue number not given)
Protocol: as §2

H. pylori urease (HPU) [6] = molecular target: T1, H. pylori urease (HPU); assay: biochemical; type: biochemical
Protocol: (§3) For the protection with inorganic compounds (BA and NaF), 0.25 mg/mL urease (HPU or JBU) was preincubated with 5 mM BA or 5 mM NaF for 20 min. Following preincubation, each sample of the protected urease was incubated with 0.5 mM Pal for 20 min. The samples containing a proper volume of respective buffer instead of Pal served as comparison with the abovementioned systems. The experiments were triply performed.

jack bean urease (JBU) [7] = molecular target: T2, jack bean urease (JBU); assay: biochemical; type: biochemical
Protocol: as §3

[8] = design: method as in PMID 23159469; settings: among berberine, coptisine, palmatine and epiberberine; in vitro and in vivo assays; cited from earlier work
[9] = design: method as in PMID 24795799; settings: cited from earlier work

T1 sequence (P14916 whole entry): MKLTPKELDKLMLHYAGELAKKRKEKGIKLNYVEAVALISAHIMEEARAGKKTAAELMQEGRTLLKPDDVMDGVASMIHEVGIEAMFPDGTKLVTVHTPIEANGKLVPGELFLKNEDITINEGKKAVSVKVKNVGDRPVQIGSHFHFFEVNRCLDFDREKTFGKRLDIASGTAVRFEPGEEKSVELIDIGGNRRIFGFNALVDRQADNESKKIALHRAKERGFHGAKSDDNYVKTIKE
T1 sequence (P69996 whole entry): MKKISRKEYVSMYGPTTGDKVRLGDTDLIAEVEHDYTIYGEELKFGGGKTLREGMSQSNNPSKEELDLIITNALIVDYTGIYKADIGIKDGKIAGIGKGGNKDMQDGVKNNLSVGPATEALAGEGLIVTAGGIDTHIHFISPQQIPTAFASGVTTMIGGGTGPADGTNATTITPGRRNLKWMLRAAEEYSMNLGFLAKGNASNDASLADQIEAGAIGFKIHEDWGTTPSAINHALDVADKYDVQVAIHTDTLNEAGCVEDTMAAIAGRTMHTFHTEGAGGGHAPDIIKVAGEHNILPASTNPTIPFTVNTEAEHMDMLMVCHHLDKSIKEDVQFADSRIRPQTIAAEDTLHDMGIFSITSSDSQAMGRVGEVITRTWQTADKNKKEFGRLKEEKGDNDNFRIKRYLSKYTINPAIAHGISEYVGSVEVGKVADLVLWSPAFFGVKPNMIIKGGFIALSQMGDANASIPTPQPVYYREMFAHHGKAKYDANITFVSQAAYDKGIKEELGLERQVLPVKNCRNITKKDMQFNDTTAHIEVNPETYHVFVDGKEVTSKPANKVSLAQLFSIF
T2 sequence (P07374 whole entry, looked up): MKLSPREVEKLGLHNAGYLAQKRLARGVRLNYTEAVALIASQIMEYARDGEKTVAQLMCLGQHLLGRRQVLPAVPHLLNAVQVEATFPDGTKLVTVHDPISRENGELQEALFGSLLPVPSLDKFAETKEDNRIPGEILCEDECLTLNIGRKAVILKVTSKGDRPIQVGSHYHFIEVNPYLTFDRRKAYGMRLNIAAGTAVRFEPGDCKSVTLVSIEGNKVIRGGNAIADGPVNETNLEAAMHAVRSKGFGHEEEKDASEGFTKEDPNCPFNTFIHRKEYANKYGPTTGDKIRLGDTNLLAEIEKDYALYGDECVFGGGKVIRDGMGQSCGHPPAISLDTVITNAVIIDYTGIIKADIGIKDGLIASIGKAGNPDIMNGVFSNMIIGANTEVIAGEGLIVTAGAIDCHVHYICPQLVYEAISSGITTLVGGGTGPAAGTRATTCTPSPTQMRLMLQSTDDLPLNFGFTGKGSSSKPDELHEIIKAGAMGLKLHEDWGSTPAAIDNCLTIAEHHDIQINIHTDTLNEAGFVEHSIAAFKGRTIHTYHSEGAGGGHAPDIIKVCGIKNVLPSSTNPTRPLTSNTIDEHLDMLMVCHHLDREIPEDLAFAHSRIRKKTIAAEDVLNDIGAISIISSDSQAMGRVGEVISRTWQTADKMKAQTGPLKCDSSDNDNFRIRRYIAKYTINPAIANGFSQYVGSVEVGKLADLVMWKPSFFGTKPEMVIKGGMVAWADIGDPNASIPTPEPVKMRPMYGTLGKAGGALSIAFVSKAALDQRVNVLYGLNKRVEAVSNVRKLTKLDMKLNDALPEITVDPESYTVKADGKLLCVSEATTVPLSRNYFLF

SMILES: COc1cc2c(cc1OC)-c1cc3ccc(OC)c(OC)c3c[n+]1CC2 [Pal, Palmatine]
- MIC (H. pylori ATCC 43504; ATCC43504, pH 5.3, 72 h): 75 µg/mL
- MIC (H. pylori ATCC 43504; ATCC43504, pH 7.4, 72 h): 100 µg/mL
- MIC ([1]; pH 5.3, 72 h): 75 µg/mL
- MIC ([1]; pH 7.4, 72 h): 100 µg/mL
- MIC (H. pylori NCTC 26695; NCTC26695, pH 5.3, 72 h): 100 µg/mL
- MIC (H. pylori NCTC 26695; NCTC26695, pH 7.4, 72 h): 200 µg/mL
- MIC (H. pylori SS1; pH 5.3, 72 h): 75 µg/mL
- MIC (H. pylori SS1; pH 7.4, 72 h): 100 µg/mL
- MIC ([2]; acidic conditions (pH 5.3)): 75 to 100 µg/mL
- MIC ([2]; neutral conditions (pH 7.4)): 100 to 200 µg/mL
- Lineweaver-Burk plot raw value (reciprocal velocity) (H. pylori urease (HPU) [3]; Pal=0.25 mM, 1/urea 0.0333333): 3.3428 and 3.026 and 3.128
- Lineweaver-Burk plot raw value (reciprocal velocity) (H. pylori urease (HPU) [3]; Pal=0.25 mM, 1/urea 0.0666667): 3.79 and 3.489 and 3.584
- Lineweaver-Burk plot raw value (reciprocal velocity) (H. pylori urease (HPU) [3]; Pal=0.25 mM, 1/urea 0.133333): 4.108 and 3.898 and 3.84
- Lineweaver-Burk plot raw value (reciprocal velocity) (H. pylori urease (HPU) [3]; Pal=0.25 mM, 1/urea 0.266667): 4.796 and 4.692 and 4.666
- Lineweaver-Burk plot raw value (reciprocal velocity) (H. pylori urease (HPU) [3]; Pal=0.25 mM, 1/urea 0.533333): 6.008 and 5.574 and 5.658
- Lineweaver-Burk plot raw value (reciprocal velocity) (H. pylori urease (HPU) [3]; Pal=0.25 mM, 1/urea 1.06667): 7.22 and 6.84 and 7.11
- Lineweaver-Burk plot raw value (reciprocal velocity) (H. pylori urease (HPU) [3]; Pal=0.50 mM, 1/urea 0.0333333): 6.847 and 6.4288 and 8.753
- Lineweaver-Burk plot raw value (reciprocal velocity) (H. pylori urease (HPU) [3]; Pal=0.50 mM, 1/urea 0.0666667): 7.294 and 6.935 and 7.391
- Lineweaver-Burk plot raw value (reciprocal velocity) (H. pylori urease (HPU) [3]; Pal=0.50 mM, 1/urea 0.133333): 8.5 and 7.307 and 9.1701
- Lineweaver-Burk plot raw value (reciprocal velocity) (H. pylori urease (HPU) [3]; Pal=0.50 mM, 1/urea 0.266667): 11.3701 and 11.0558
- Lineweaver-Burk plot raw value (reciprocal velocity) (H. pylori urease (HPU) [3]; Pal=0.50 mM, 1/urea 0.533333): 13.369 and 12.3993
- Lineweaver-Burk plot raw value (reciprocal velocity) (H. pylori urease (HPU) [3]; Pal=0.50 mM, 1/urea 1.06667): 12.1433 and 18.315 and 12.9786
- Lineweaver-Burk plot raw value (reciprocal velocity) (H. pylori urease (HPU) [3]; Pal=1.00 mM, 1/urea 0.0333333): 10.7527 and 9.785 and 8.636
- Lineweaver-Burk plot raw value (reciprocal velocity) (H. pylori urease (HPU) [3]; Pal=1.00 mM, 1/urea 0.0666667): 12.8452 and 10.5708 and 10.7296
- Lineweaver-Burk plot raw value (reciprocal velocity) (H. pylori urease (HPU) [3]; Pal=1.00 mM, 1/urea 0.133333): 12.2775 and 12.7551 and 11.5942
- Lineweaver-Burk plot raw value (reciprocal velocity) (H. pylori urease (HPU) [3]; Pal=1.00 mM, 1/urea 0.266667): 16.5017 and 10.1061 and 12.6342
- Lineweaver-Burk plot raw value (reciprocal velocity) (H. pylori urease (HPU) [3]; Pal=1.00 mM, 1/urea 0.533333): 22.1239 and 12.1729 and 15.3022
- Lineweaver-Burk plot raw value (reciprocal velocity) (H. pylori urease (HPU) [3]; Pal=1.00 mM, 1/urea 1.06667): 26.3505 and 13.2013 and 19.861
- type of urease inhibition (H. pylori urease (HPU) [3]; HPU, Lineweaver-Burk): noncompetitive
- remaining activity at 500 µM (H. pylori urease (HPU) [4]; 5 min incubation): 68.6%
- remaining activity at 500 µM (H. pylori urease (HPU) [4]; 10 min incubation): 62.4%
- remaining activity at 500 µM (H. pylori urease (HPU) [4]; 20 min incubation): 40.4%
- remaining activity at 500 µM (H. pylori urease (HPU) [4]; 40 min incubation): 24.2%
- remaining activity at 500 µM (jack bean urease (JBU) [5]; 5 min incubation): 30.8%
- remaining activity at 500 µM (jack bean urease (JBU) [5]; 10 min incubation): 35.2%
- remaining activity at 500 µM (jack bean urease (JBU) [5]; 20 min incubation): 34.3%
- remaining activity at 500 µM (jack bean urease (JBU) [5]; 40 min incubation): 32.7%
- Residual urease activity (percent of control) (H. pylori urease (HPU) [6]; Fig 4C HPU, BA or NaF 5 mM preincubated 20 min, Pal 0.5 mM 20 min): 23.7773% and 26.341%
- activity of enzyme inactivated by Pal in the presence of BA (H. pylori urease (HPU) [6]; HPU, 5 mM BA + 0.5 mM Pal, mean): 22.42%
- activity of enzyme inactivated by Pal in the presence of NaF (H. pylori urease (HPU) [6]; HPU, 5 mM NaF + 0.5 mM Pal, mean): 20.35%
- remaining activity at 500 µM (H. pylori urease (HPU) [6]; read-out: Residual urease activity (percent of control), Fig 4C HPU, BA or NaF 5 mM preincubated 20 min, Pal 0.5 mM 20 min): 23.1%
- Residual urease activity (percent of control) (jack bean urease (JBU) [7]; Fig 4D JBU, BA or NaF 5 mM preincubated 20 min, Pal 0.5 mM 20 min): 36.6919% and 36.1251%
- activity of enzyme inactivated by Pal in the presence of BA (jack bean urease (JBU) [7]; JBU, 5 mM BA + 0.5 mM Pal, mean): 33.08%
- activity of enzyme inactivated by Pal in the presence of NaF (jack bean urease (JBU) [7]; JBU, 5 mM NaF + 0.5 mM Pal, mean): 19.91%
- remaining activity at 500 µM (jack bean urease (JBU) [7]; read-out: Residual urease activity (percent of control), Fig 4D JBU, BA or NaF 5 mM preincubated 20 min, Pal 0.5 mM 20 min): 35.2%
- toxicity [8]: minimal
- anti-ulcerogenic activity [9]: better than that of the C. chinensis extract and its active principle berberine
